Read-outs that look alike come from different tables or passages of the source.
Legend:
[1] = tested on: B. anthracis (Ames strain); assay type: in vivo, Bacillus anthracis; settings: 13 days
Streptococcus pneumoniae = settings: in vivo; cited from earlier work
human TLR2 = molecular target: T1, human TLR2 (Homo sapiens, UniProt O60603+Q15399); experiment: cell-based
T1 construct: expressed in transfected cells; host or cells: HEK293-NF-κB-Luc cells (clone LP58), stably transfected

[2] = tested on: B. anthracis (Ames strain); design: species or system Bacillus anthracis; settings: in vivo
B. anthracis = tested on: B. anthracis; design: species or system Bacillus anthracis; settings: in vivo
[3] = tested on: B. anthracis (Ames strain); assay type: in vivo, Bacillus anthracis; settings: for survival rate: 17 days
S. aureus = settings: in vivo; cited from earlier work
[4] = in vivo; cited from earlier work
PA = settings: cited from earlier work

T1 sequence (O60603 21-784): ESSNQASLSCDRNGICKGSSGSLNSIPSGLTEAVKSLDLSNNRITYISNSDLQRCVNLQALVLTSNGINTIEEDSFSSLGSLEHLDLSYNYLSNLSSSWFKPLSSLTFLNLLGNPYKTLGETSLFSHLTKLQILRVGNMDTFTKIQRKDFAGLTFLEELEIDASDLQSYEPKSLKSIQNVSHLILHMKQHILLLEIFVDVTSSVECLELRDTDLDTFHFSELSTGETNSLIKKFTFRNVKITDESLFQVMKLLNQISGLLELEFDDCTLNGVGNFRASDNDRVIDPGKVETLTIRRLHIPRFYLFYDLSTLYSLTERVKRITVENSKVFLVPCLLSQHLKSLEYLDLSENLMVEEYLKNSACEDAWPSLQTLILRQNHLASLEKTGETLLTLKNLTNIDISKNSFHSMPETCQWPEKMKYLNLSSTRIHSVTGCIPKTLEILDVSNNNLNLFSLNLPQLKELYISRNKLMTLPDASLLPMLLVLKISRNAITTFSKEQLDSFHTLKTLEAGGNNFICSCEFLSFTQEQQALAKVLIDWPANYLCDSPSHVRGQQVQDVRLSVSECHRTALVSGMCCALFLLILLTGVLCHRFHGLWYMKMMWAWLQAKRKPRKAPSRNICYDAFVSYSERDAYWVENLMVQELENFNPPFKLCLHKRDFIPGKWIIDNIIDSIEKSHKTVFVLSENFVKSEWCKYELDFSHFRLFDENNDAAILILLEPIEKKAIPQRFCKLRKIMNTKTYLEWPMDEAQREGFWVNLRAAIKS
T1 sequence (Q15399 25-786): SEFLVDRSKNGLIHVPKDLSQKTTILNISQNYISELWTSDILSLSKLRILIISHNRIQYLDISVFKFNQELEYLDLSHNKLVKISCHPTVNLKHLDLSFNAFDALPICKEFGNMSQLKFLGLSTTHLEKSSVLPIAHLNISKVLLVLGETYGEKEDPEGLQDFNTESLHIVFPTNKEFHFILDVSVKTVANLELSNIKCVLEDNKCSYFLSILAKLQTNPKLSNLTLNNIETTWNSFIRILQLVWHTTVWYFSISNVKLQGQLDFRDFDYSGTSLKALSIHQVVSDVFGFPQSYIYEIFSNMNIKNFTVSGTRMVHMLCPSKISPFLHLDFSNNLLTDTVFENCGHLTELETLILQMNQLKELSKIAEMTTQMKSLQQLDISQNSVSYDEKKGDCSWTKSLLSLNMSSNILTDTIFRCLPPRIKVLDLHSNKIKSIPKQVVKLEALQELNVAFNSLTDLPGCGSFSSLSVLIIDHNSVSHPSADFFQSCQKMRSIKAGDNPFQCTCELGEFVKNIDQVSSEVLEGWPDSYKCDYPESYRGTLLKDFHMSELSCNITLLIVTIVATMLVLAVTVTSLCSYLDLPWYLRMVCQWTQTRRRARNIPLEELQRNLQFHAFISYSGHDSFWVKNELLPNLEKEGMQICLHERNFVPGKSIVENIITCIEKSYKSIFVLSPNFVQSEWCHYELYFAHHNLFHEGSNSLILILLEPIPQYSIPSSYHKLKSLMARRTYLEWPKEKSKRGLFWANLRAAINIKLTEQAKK

## O=C(O)c1cn(C2CC2)c2cc(N3CCNCC3)c(F)cc2c1=O [ciprofloxacin]
[1]
  survival rate: 50%

## MALP-2
Streptococcus pneumoniae
  pulmonary bacterial burden in mice: reduced pulmonary bacterial burden in mice

## Pam3CSK4
Human PBMCs
  induction of IFN-γ, TNF-α and IL-6 production: able to induce aforementioned cytokine productions with varying potency
Human TLR2
  induction of NF-kB activity: dose dependent induction of NF-kB activity
[2]
  survival rate: 40%
B. anthracis
  survival rate after re-challenge: 25%
[3]
  survival rate: 60%
[3]; in vivo
  protection of mice from lethal challenge of B. anthracis: the best at protecting mice from lethal challenge of B. anthracis

## Pam3Cys
S. aureus
  protection from S. aureus endophthalmitis: protected mice from S. aureus endophthalmitis, preserved retinal structural integrity, and maintained visual function

## CCCCCCCCCCCCCCCC(=O)N[C@@H](CSC[C@@H](COC(=O)CCCCCCCCCCC)OC(=O)CCCCCCCCCCC)C(=O)N[C@@H](C)C(=O)N[C@H](CCC(=O)O)C(N)=O [DA-98-WW07, (4R,7S,10R,14R)-4-carbamoyl-14-(dodecanoyloxy)-7-methyl-6,9,17-trioxo-10-palmitamido-16-oxa-12-thia-5,8-diazaoctacosanoic acid]
Human TLR2
  EC50: 1040 ± 1160 nM
  efficacy (% Eff), NF-κB-Luciferase: 101.36%

## Poly (I:C)
[3]
  survival rate: 20%

## lipopolysaccharide [LPS]
Human PBMCs
  induction of IFN-γ, TNF-α and IL-6 production: able to induce aforementioned cytokine productions with varying potency
Human TLR2
  induction of NF-kB activity: dose dependent induction of NF-kB activity

## CCc1nc2c(N)nc3ccccc3c2n1CCCCNS(C)(=O)=O [PF4878691]
[4]
  adverse effects in patients: flu-like symptoms, lymphopenia and hypotension

## Pam2CSK4
Human PBMCs
  induction of IFN-γ, TNF-α and IL-6 production: able to induce aforementioned cytokine productions with varying potency
Human TLR2
  induction of NF-kB activity: dose dependent induction of NF-kB activity
[3]
  survival rate: 20%

## ODN1826
[3]
  survival rate: 0%

B1: obiltoxaximab (antibody, chains of the INN, looked up, V domains shown)
VH: QVQLQQSGPELKKPGASVKVSCKDSGYAFSSSWMNWVRQAPGQGLEWIGRIYPGDGDTNYNGKFQGRVTITADKSSSTAYMELSSLRSEDTAVYFCARSGLLRYAMDYWGQGTLVTVSS
VL: DIQMTQSPSSLSASVGDRVTITCRASQDIRNYLNWYQQKPGKAVKLLIYYTSRLLPGVPSRFSGSGSGTDYSLTISSQEQEDIGTYFCQQGNTLPWTFGQGTKVEIR
PA
  binding to PA and block of binding to anthrax toxin receptors: bind to PA and block its binding to anthrax toxin receptors

Source: paper PMC8965344 (Frontiers in Microbiology, 2022)
